Experimental data reported in patent US20180030001A1, “NEW TRIAZINE COMPOUNDS AS PHOTOSTABILIZING AGENTS” (3V Sigma S.P.A., priority 2016, published 2018).

Experiment: UVA:UVB ratio (radiation absorbed 320-400 nm vs 290-320 nm) of triazine compounds
Assay type: physicochemical
Settings: versus diethylhexyl butamido triazone and ethylhexyl triazone
Source text: Typically, the numerical UV-A/UV-B ratio of these compounds, defined as the ratio between the intensity of the radiation absorbed between 320 nm and 400 nm (UVA fraction) and that absorbed between 290 nm and 320 nm (UVB fraction), is greater than 0.20, and preferably greater than 0.30, whereas in the analogous triazine compounds with a 4-aminobenzoate or 4-aminobenzamide substituent different from the substituents described in Formula (IV), it is below about 0.14.
The UVA:UVB ratio is the ratio between the intensity of the radiation absorbed between 320 nm and 400 nm (UVA fraction) and that absorbed between 290 nm and 320 nm (UVB fraction).

UVA fraction relative to triazine analogues already known, at least twice as high:
CCCCC(CC)COC(=O)c1ccc(NC(=O)c2ccc(Nc3nc(Nc4ccc(C(=O)NC(C)(C)C)cc4)nc(Nc4ccc(C(=O)OCC(CC)CCCC)cc4)n3)cc2)cc1 (stereo not drawn) [Compound of formula (VI)]
CCCCC(CC)COC(=O)c1ccc(NC(=O)c2ccc(Nc3nc(Nc4ccc(C(=O)OCC(CC)CCCC)cc4)nc(Nc4ccc(C(=O)OCC(CC)CCCC)cc4)n3)cc2)cc1 (stereo not drawn) [Compound of formula (VII)]
CCCCC(CC)COC(=O)c1ccc(NC(=O)c2ccc(Nc3nc(Nc4ccc(C(=O)Nc5ccc(C(=O)OCC(CC)CCCC)cc5)cc4)nc(Nc4ccc(C(=O)NC(C)(C)C)cc4)n3)cc2)cc1 (stereo not drawn) [Compound of formula (V)]
